Among the test systems are MDA-MB-231 breast; SK-MEL-2 melanoma; SF-539 CNS; DU-145 prostate; MDA-MB-435; T-47D breast; UACC-257 melanoma; OVCAR-3 ovarian; HOP-62 NSCLC; HCT-116 colon.
Common to all, as to assay: growth of human tumour cells (NCI), 48 h

TGI and GI50 data for 8 molecules are collected here from PubChem BioAssay (NCI).

The structures appear in SMILES notation.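 Dose response: 5 concentrations. Exposure: 48 h. Format: 96-well plates. Endpoint: linear interpolation; highest concentration if not reached. Here, GI50 denotes the concentration required for 50% inhibition of growth. TGI marks complete inhibition of growth.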

As for `COc1cc2c3c(c4ccc(O)cc4c2cc1OC)[C@@H](O)[C@@H]1CCCN1C3`, the TGI in the experiment with MDA-MB-231 breast was 0.0078 µM; in the experiment on SK-MEL-2 melanoma it was 0.00429 µM; in the experiment on SF-539 CNS it was < 0.0114 µM; in the experiment with DU-145 prostate, 0.0036 µM; in the experiment on MDA-MB-435, 0.0072 µM; in the experiment on T-47D breast, 0.00216 µM. For the same molecule, the TGI is 0.0588 µM in the experiment on UACC-257 melanoma, 0.00493 µM in the experiment with OVCAR-3 ovarian, 0.0421 µM in the experiment with HOP-62 NSCLC and 0.00188 µM with HCT-116 colon.

With `CC1CCc2c(C(=O)Nc3ncc(Cc4cccc([N+](=O)[O-])c4)s3)csc2C1` (stereo not given), the GI50 is 1.03 µM in the experiment with MDA-MB-231 breast; 0.586 µM in the experiment with SK-MEL-2 melanoma; 0.548 µM in the experiment with SF-539 CNS; 1.05 µM in the experiment with DU-145 prostate; 0.133 µM in the experiment on MDA-MB-435; 0.653 µM in the experiment with T-47D breast. Further, the GI50 was 3.77 µM with UACC-257 melanoma, 0.391 µM in the experiment with OVCAR-3 ovarian, 0.795 µM in the experiment with HOP-62 NSCLC and 0.468 µM in the experiment with HCT-116 colon. For the same molecule, the TGI in the experiment on MDA-MB-231 breast is > 100 µM; in the experiment with SK-MEL-2 melanoma, > 100 µM; with SF-539 CNS it was 1.93 µM; in the experiment with DU-145 prostate, > 100 µM; in the experiment with MDA-MB-435 it was 0.45 µM; in the experiment on T-47D breast, > 100 µM. For the same molecule, the TGI in the experiment on UACC-257 melanoma is > 100 µM; in the experiment with OVCAR-3 ovarian it was 2.25 µM; in the experiment on HOP-62 NSCLC it was > 100 µM; with HCT-116 colon, > 100 µM.

As to `COc1cc(F)c(F)c(Nc2ccc(I)cc2F)c1NS(=O)(=O)C1(CC(O)CO)CC1` (stereo not given), the GI50 in the experiment on MDA-MB-231 breast is 11 µM; in the experiment with SK-MEL-2 melanoma, 4.1 µM; in the experiment with SF-539 CNS, 15.8 µM; in the experiment with DU-145 prostate, 19.4 µM; in the experiment on MDA-MB-435, 4.63 µM; in the experiment with T-47D breast it was 15.7 µM. In addition, the GI50 in the experiment with UACC-257 melanoma was 3.05 µM; with OVCAR-3 ovarian, 14.6 µM; with HOP-62 NSCLC it was 14 µM; in the experiment with HCT-116 colon it was 13.5 µM. Moreover, the TGI is 27.3 µM in the experiment on MDA-MB-231 breast; 18.8 µM in the experiment on SK-MEL-2 melanoma; 33.8 µM in the experiment on SF-539 CNS; 54 µM in the experiment on DU-145 prostate; 22.3 µM in the experiment with MDA-MB-435; > 75.5 µM in the experiment on T-47D breast. For the same molecule, the TGI in the experiment on UACC-257 melanoma came to 19.5 µM; in the experiment with OVCAR-3 ovarian, 36.4 µM; in the experiment with HOP-62 NSCLC it was 32.4 µM; in the experiment with HCT-116 colon, 31.6 µM.

Consider `COC(=O)c1sc(-n2cnc3cc(OC)c(OC)cc32)cc1OCc1ccccc1C(F)(F)F`, for which the GI50 in the experiment on MDA-MB-231 breast was 5.79 µM; in the experiment on SK-MEL-2 melanoma it was > 19 µM; in the experiment on SF-539 CNS, > 25 µM; with DU-145 prostate, > 25 µM; with MDA-MB-435, > 25 µM; in the experiment on T-47D breast, > 25 µM. Besides, the GI50 was > 25 µM in the experiment with UACC-257 melanoma, > 25 µM in the experiment with OVCAR-3 ovarian, 9.22 µM in the experiment with HOP-62 NSCLC and > 21.8 µM in the experiment with HCT-116 colon. In addition, the TGI in the experiment on MDA-MB-231 breast, in the experiment on SK-MEL-2 melanoma, in the experiment with SF-539 CNS, with DU-145 prostate, with MDA-MB-435 and in the experiment on T-47D breast was > 25 µM in each case. In addition, the TGI in the experiment on UACC-257 melanoma, with OVCAR-3 ovarian, with HOP-62 NSCLC and with HCT-116 colon was > 25 µM in each case.

For the molecule `CN1CCN(Cc2ccc(NC(=O)c3cncc(C#Cc4c(N)ncc5ccccc45)c3)cc2C(F)(F)F)CC1`, the GI50 in the experiment with MDA-MB-231 breast was 0.336 µM; in the experiment on SK-MEL-2 melanoma it was 0.782 µM; in the experiment with SF-539 CNS, 0.532 µM; with DU-145 prostate it was 0.716 µM; in the experiment on MDA-MB-435, 0.291 µM; in the experiment with T-47D breast it was 0.831 µM. The GI50 in the experiment on UACC-257 melanoma was 0.773 µM; with OVCAR-3 ovarian, 0.817 µM; in the experiment on HOP-62 NSCLC it was 0.733 µM; with HCT-116 colon, 0.257 µM. In addition, the TGI in the experiment with MDA-MB-231 breast is 1.04 µM; in the experiment on SK-MEL-2 melanoma, 1.72 µM; with SF-539 CNS it was 1.13 µM; in the experiment on DU-145 prostate, 1.39 µM; in the experiment with MDA-MB-435 it was 0.968 µM; with T-47D breast, 1.66 µM. Also, the TGI was 1.6 µM in the experiment with UACC-257 melanoma, 1.53 µM in the experiment on OVCAR-3 ovarian, 1.66 µM in the experiment with HOP-62 NSCLC and 0.892 µM in the experiment with HCT-116 colon.

With `O=C(Nc1c[nH]c(=O)[nH]c1=O)Oc1ccccc1`, the TGI in the experiment on MDA-MB-231 breast, in the experiment on SK-MEL-2 melanoma, with SF-539 CNS, in the experiment on DU-145 prostate, in the experiment with MDA-MB-435 and in the experiment on T-47D breast was > 100 µM each time. Besides, the TGI in the experiment on UACC-257 melanoma, in the experiment with OVCAR-3 ovarian, in the experiment on HOP-62 NSCLC and in the experiment with HCT-116 colon was > 100 µM each time.

`Nc1nc(SCC#CCCl)c2[nH]cnc2n1`: the GI50 with MDA-MB-231 breast is 6.26 µM; in the experiment with SK-MEL-2 melanoma, 4.92 µM; in the experiment with SF-539 CNS it was 3.61 µM; in the experiment with DU-145 prostate it was 4.39 µM; with MDA-MB-435, 3.81 µM; in the experiment on T-47D breast, 5.26 µM. The GI50 in the experiment on UACC-257 melanoma is 7.12 µM; in the experiment with OVCAR-3 ovarian, 3.27 µM; with HOP-62 NSCLC, 9.94 µM; in the experiment on HCT-116 colon, 3.86 µM. Moreover, the TGI is 21.4 µM in the experiment on MDA-MB-231 breast; 23.3 µM in the experiment with SK-MEL-2 melanoma; 15.4 µM in the experiment with SF-539 CNS; 15.9 µM with DU-145 prostate; 18.6 µM in the experiment with MDA-MB-435; 21.1 µM in the experiment with T-47D breast. The TGI worked out at 22.5 µM with UACC-257 melanoma, 10.9 µM in the experiment with OVCAR-3 ovarian, 24.3 µM in the experiment on HOP-62 NSCLC and 15.2 µM in the experiment on HCT-116 colon.

Regarding `CCc1ccc([OH2+])c(C(=O)[O-])c1.CCc1ccc([OH2+])c(C(=O)[O-])c1.CCc1ccc([OH2+])c(C(=O)[O-])c1.CCc1ccc([OH2+])c(C(=O)[O-])c1.[Cu+2].[Cu+2]`, the GI50 with MDA-MB-231 breast was > 100 µM; in the experiment on SK-MEL-2 melanoma it was > 91.3 µM; in the experiment on SF-539 CNS, > 100 µM; in the experiment on DU-145 prostate, 70.1 µM; in the experiment with MDA-MB-435, 49.3 µM; with T-47D breast it was > 100 µM. For the same molecule, the GI50 in the experiment with UACC-257 melanoma is > 100 µM; with OVCAR-3 ovarian, 36.5 µM; in the experiment with HOP-62 NSCLC it was > 100 µM; in the experiment on HCT-116 colon it was > 100 µM. Moreover, the TGI in the experiment on MDA-MB-231 breast, with SK-MEL-2 melanoma, in the experiment with SF-539 CNS, with DU-145 prostate, with MDA-MB-435 and in the experiment with T-47D breast was > 100 µM throughout. The TGI in the experiment on UACC-257 melanoma, in the experiment with OVCAR-3 ovarian, in the experiment on HOP-62 NSCLC and with HCT-116 colon was > 100 µM each time.
